Source: PMC3985777 (Biochemistry, 2014)

Tests used:
[1] = target: HasAp (Pseudomonas aeruginosa, UniProt G3XD33, H83A); test: biochemical
[2] = target: HasAp (Pseudomonas aeruginosa, UniProt G3XD33, Y75A); test: biochemical

C=CC1=C(C)C2=Cc3c(C=C)c(C)c4[n]3[Fe]([Cl])[n]3c(c(C)c(CCC(=O)O)c3=CC3=NC(=C4)C(C)=C3CCC(=O)O)=CC1=N2 [hemin]
Kd [1]: 30 µM | Kd [2]: 129 µM
